The supplement of paper PMC3493320

system: NCI-H295R; test: IC50 (antiproliferative, ATP content); conditions: 48 h
In short: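 Following overnight culture of adrenocortical carcinoma cells (1500 per well) in 1536-well plates with serum-free ITS-supplemented DMEM, library compounds were pin-transferred at 8 final concentrations from 0.6 nM to 46 µM. Incubation lasted 48 h at 37 °C, 5% CO2, and the CellTiter-Glo signal was read after 20 min at room temperature. Data were fitted with a four-parameter logistic model. Each IC50 came from that fit after normalisation to vehicle and positive-control wells, and compounds without a concentration response were reported as above the top dose.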

| SMILES | IC50 |
| --- | --- |
| Cc1cccc(C)c1NC(=O)CN(CC(=O)O)CC(=O)O | > 46 µM |
| O=C1NCN(c2ccccc2)C12CCN(CC1COc3ccccc3O1)CC2 (stereo unspecified) | > 46 µM |
| CCO[C@@H]1O[C@H](C(COCc2ccccc2)OCc2ccccc2)[C@H](OCc2ccccc2)[C@H]1O (stereo partly specified) | > 46 µM |
| c1ccc(C2CC2)c(OCC2=NCCN2)c1 | > 46 µM |
| COc1cc(/C=C/C(=O)CC(=O)/C=C/c2ccc(O)c(OC)c2)ccc1O | > 46 µM |
| CCC1(C)CC(=O)NC1=O (stereo unspecified) | > 46 µM |
| O=C3N1/C(=C(\CS[C@@H]1[C@@H]3NC(=O)Cc2ccccc2CN)CSc4nnnn4CC(O)=O)C(O)=O | > 46 µM |
| NCCC(O)(P(=O)(O)O)P(=O)(O)O | > 46 µM |
| Nc1c2c(nc3ccccc13)CCCC2O.O=C(O)/C=C\C(=O)O (stereo unspecified) | > 46 µM |
| CC(=O)Oc1cc(C(F)(F)F)ccc1C(=O)O | > 46 µM |
| CCN(CC)Cc1cc(Nc2ccnc3cc(Cl)ccc23)ccc1O.Cl.Cl.O.O | > 46 µM |
| CCn1cc(C(=O)O)c(=O)c2cnc(N3CCNCC3)nc21 | > 46 µM |
| CN(C(=O)c1c(O)c2ccccc2n(C)c1=O)c1ccccc1 | > 46 µM |
| O=[C@@](OC)[C@H](C2=CC=CC=C2Cl)N1CC(C=CS3)=C3CC1.O=S(O)(O)=O | > 46 µM |
| OCCN(CCO)c1nc(N2CCCCC2)c2nc(N(CCO)CCO)nc(N3CCCCC3)c2n1 | > 46 µM |
| [N-]=[N+]=CC(=O)OC[C@H](N)C(=O)O | > 46 µM |
| NS(=O)(=O)c2cc1c(/N=C\NS1(=O)=O)cc2Cl | > 46 µM |
| CCN(CC)C(=O)c1cccc(C)c1 | > 46 µM |
| C[C@H]1COc2c(C3(N)CC3)c(F)cc3c(=O)c(C(=O)O)cn1c23 | > 46 µM |
| CC(C)Cn1cnc2c1c(=O)n(C)c(=O)n2C | > 46 µM |
| CCN(Cc1ccncc1)C(=O)C(CO)c1ccccc1 (stereo unspecified) | > 46 µM |
| Cc1ccc2c(c1)C1CN(C)CCC1N2 (stereo unspecified) | > 46 µM |
| O[C@@H]1CC[C@@H](/C=C(C)/[C@H]([C@H](C)[C@@H](O)CC4=O)O[C@@]([C@H]2N(C(C([C@]3(O)O[C@H]([C@H](C[C@H](C/C(C)=C/[C@H]4CC=C)C)OC)[C@@H](OC)C[C@H]3C)=O)=O)CCCC2)=O)C[C@H]1OC | > 46 µM |

| SMILES | IC50 |
| --- | --- |
| CC(=O)OCC1=C(C(=O)O)N2C(=O)[C@@H](NC(=O)Cc3cccs3)[C@H]2SC1 | > 46 µM |
| CC(=O)Oc1c(C)c(C)c2c(c1C)CCC(C)(CCCC(C)CCCC(C)CCCC(C)C)O2 (stereo unspecified) | > 46 µM |
| O=C3N1/C(=C(/C)CS[C@@H]1[C@@H]3NC(=O)[C@H](N)c2ccccc2)C(O)=O | > 46 µM |
| O=C([O-])c1cc2cc(Cc3cccnc3)ccc2o1.[Na+] | > 46 µM |
| CN1CCCC(CN2c3ccccc3Sc3ccccc32)C1 (stereo unspecified) | > 46 µM |
| FC1(F)C(F)(F)C(F)(F)C2(F)C(F)(F)C(F)(F)C(F)(F)C(F)(F)C2(F)C1(F)F (stereo unspecified) | > 46 µM |
| N[C@@H]1CONC1=O | > 46 µM |
| CCN1CCC[C@H]1CNC(=O)c1c(O)c(Cl)cc(Cl)c1OC | > 46 µM |
| NS(=O)(=O)c1ccc(C(=O)O)cc1 | > 46 µM |
| C=CCOC(Cn1ccnc1)c1ccc(Cl)cc1Cl.O=S(=O)(O)O (stereo unspecified) | > 46 µM |
| CCN(C)C(=O)Oc1cccc([C@H](C)N(C)C)c1.O=C(O)[C@@H](O)[C@H](O)C(=O)O | > 46 µM |
| N[C@@H](COP(=O)(O)O)C(=O)O | > 46 µM |
| [NH2][Pt]([NH2])([Cl])[Cl] | > 46 µM |
| O=C(c1ccc(F)cc1)C1CCN(CCn2c(=O)[nH]c3ccccc3c2=O)CC1 | > 46 µM |
| COC(=O)[C@@H](N)CS.Cl | > 46 µM |
| CC(C)(O/N=C(\C(=O)N[C@@H]1C(=O)N2C(C(=O)[O-])=C(C[n+]3ccccc3)CS[C@H]12)c1csc(N)n1)C(=O)O.O.O.O.O.O | > 46 µM |
| CC1(c2ccccc2)OC(C(=O)O)=CC1=O (stereo unspecified) | > 46 µM |
| CC1=CCC(C(C)(C)O)CC1 (stereo unspecified) | > 46 µM |
| CC(=O)N(CC(O)CO)c1c(I)c(C(=O)NCC(O)CO)c(I)c(C(=O)NCC(O)CO)c1I (stereo unspecified) | > 46 µM |
| CCC(C)(C)C(=O)O[C@H]1C[C@@H](C)C=C2C=C[C@H](C)[C@H](CC[C@@H]3C[C@@H](O)CC(=O)O3)[C@H]21 | > 46 µM |
| C=C(C)[C@@H]1[C@H]2OC(=O)[C@@H]1[C@]1(O)C[C@H]3O[C@]34C(=O)O[C@H]2[C@]14C.CC(C)(O)[C@@H]1[C@H]2OC(=O)[C@@H]1[C@]1(O)C[C@H]3O[C@]34C(=O)O[C@H]2[C@]14C | > 46 µM |
| COc1cc(Cc2cnc(N)nc2N)cc(OC)c1OC | > 46 µM |
| Cc1ncc(CNC(=O)N(CCCl)N=O)c(N)n1 | > 46 µM |

| SMILES | IC50 |
| --- | --- |
| N=C(N)N1CCc2ccccc2C1.N=C(N)N1CCc2ccccc2C1.O=S(=O)(O)O | > 46 µM |
| Nc1ccc(S(=O)(=O)NC(=O)c2ccccc2)cc1 | > 46 µM |
| CC[C@H](C)CCCCC(=O)N[C@@H](CCN)C(=O)N[C@H](C(=O)N[C@@H](CCN)C(=O)N[C@H]1CCNC(=O)[C@H]([C@@H](C)O)NC(=O)[C@H](CCN)NC(=O)[C@H](CCN)NC(=O)[C@H](CC(C)C)NC(=O)[C@@H](CC(C)C)NC(=O)[C@H](CCN)NC1=O)[C@@H](C)O.O=S(=O)(O)O | > 46 µM |
| CC(=O)[C@H]2CC[C@H]3[C@@H]4\C=C/C1=C/C(=O)CC[C@@]1(C)[C@@H]4CC[C@]23C | > 46 µM |
| C\C1=C\N(C(=O)NC1=O)[C@H]2\C=C/[C@@H](CO)O2 | > 46 µM |
| O=C(c1ccccc1)C(O)c1ccccc1 (stereo unspecified) | > 46 µM |
| N21/C(=C(/SCCNC=N)C[C@@H]1[C@H](C2=O)[C@H](O)C)C(=O)O | > 46 µM |
| O=C([O-])C[C@H](O)C[C@H](O)/C=C/c1c(C2CC2)nc2ccccc2c1-c1ccc(F)cc1.O=C([O-])C[C@H](O)C[C@H](O)/C=C/c1c(C2CC2)nc2ccccc2c1-c1ccc(F)cc1.[Ca+2] | > 46 µM |
| CC1=C(/C=C/C(C)=C/C=C/C(C)=C/C=C/C=C(C)/C=C/C=C(C)/C=C/C2=C(C)CCCC2(C)C)C(C)(C)CCC1 | > 46 µM |
| CN1CCC(OC(=O)C(Oc2ccc(Cl)cc2)Oc2ccc(Cl)cc2)CC1 | > 46 µM |
| COc1cc(OC)cc(OC)c1 | > 46 µM |
| CC1(C)O[C@@H]2C[C@H]3[C@@H]4C[C@H](F)C5=CC(=O)CC[C@]5(C)[C@H]4[C@@H](O)C[C@]3(C)[C@]2(C(=O)CO)O1 | > 46 µM |
| CCCN1CCC[C@@H]2Cc3nc(N)ncc3C[C@H]21 | > 46 µM |
| NCC(O)CC(=O)O (stereo unspecified) | > 46 µM |
| CCC(=O)O.CCC(=O)O.O=C(Nc1cccc(C2=NCCN2)c1)Nc1cccc(C2=NCCN2)c1 | > 46 µM |
| C[N+](C)(C)CCOC(=O)CCC(=O)OCC[N+](C)(C)C.[Cl-].[Cl-] | > 46 µM |
| CCn1ccnc1CC1COc2ccccc2O1 (stereo unspecified) | > 46 µM |
| COC1[C@@H](O[C@@H]2O[C@H](C)[C@@H](O[C@H]3C[C@@](C)(O)[C@H](OC(=O)CC(C)C)[C@H](C)O3)[C@H](N(C)C)[C@H]2O)[C@@H](CC=O)C[C@@H](C)[C@@H](O)/C=C/C=C/C[C@@H](C)OC(=O)C[C@H]1OC(C)=O (stereo partly specified) | > 46 µM |
| COc1ccc(CCN(C)CCCC(C#N)(c2ccc(OC)c(OC)c2)C(C)C)cc1OC (stereo unspecified) | > 46 µM |
| CC(C)(CO)C(O)C(=O)NCCC(=O)NCCSSCCNC(=O)CCNC(=O)C(O)C(C)(C)CO (stereo unspecified) | > 46 µM |
| O=c1oc2c(O)c(O)cc3c(=O)oc4c(O)c(O)cc1c4c23 | > 46 µM |
| CCOC(=O)C1(c2ccccc2)CCN(CCC(C#N)(c2ccccc2)c2ccccc2)CC1.Cl | > 46 µM |
| CCCC(=O)O[C@]1(C(=O)COC(C)=O)CC[C@H]2[C@@H]3C[C@H](F)C4=CC(=O)C=C[C@]4(C)[C@@]3(F)[C@@H](O)C[C@@]21C | > 46 µM |

| SMILES | IC50 |
| --- | --- |
| CN(CCOc1ccc(NS(C)(=O)=O)cc1)CCc1ccc(NS(C)(=O)=O)cc1 | > 46 µM |
| C=CCN1CC[C@]23CCCC[C@H]2[C@H]1Cc1ccc(O)cc13 | > 46 µM |
| NCCCC[C@H](N)C(=O)O | > 46 µM |
| CCCC(C)C1(CC)C(=O)N=C([S-])NC1=O.[Na+] (stereo unspecified) | > 46 µM |
| CC/C=C\C/C=C\C/C=C\C/C=C\C/C=C\C/C=C/CCC(=O)O | > 46 µM |
| [H][C@]13[C@](O3)([H])[C@@H]2CC(OC(C(C4=CC=CS4)(C5=CC=CS5)O)=O)C[C@H]1[N@@+](C)2C.[Br-] (stereo partly specified) | > 46 µM |
| O=Cc1ccco1 | > 46 µM |
| CNC1(C)C2CCC(C2)C1(C)C (stereo unspecified) | > 46 µM |
| CCC(C)(Oc1ccc(C2(c3ccc(OC(C)(CC)C(=O)O)cc3)CCCCC2)cc1)C(=O)O (stereo unspecified) | > 46 µM |
| CN(C)C(Cc1ccccc1)c1ccccc1 (stereo unspecified) | > 46 µM |
| CNC(C)C(O)c1ccc(O)cc1.Cl (stereo unspecified) | > 46 µM |
| O=C1N(C(C(O)=O)=C(CSC4=NN=NN4C)CS2)[C@@]2([H])[C@@]([H])1NC([C@@H]([C@@](C=C5)=CC=C5O)NC(C3=C(O)C=C(C)N=C3)=O)=O | > 46 µM |
| O[C@H]1[C@@H]([C@H](O)CO)O[C@H]2[C@@H]1O[C@@H]([C@@](Cl)(Cl)Cl)O2 | > 46 µM |
| O=[C@](CO)[C@]([C@H]2C1)(O[C@@](CCC)([H])O2)[C@](C[C@@H]3O)(C)[C@@]1([C@@]([C@@]([C@](C)4C=C5)3[H])(CCC4=CC5=O)[H])[H] | > 46 µM |
| Clc1ccc2c(c1)C(N1CCNCC1)=Nc1ccccc1O2 | > 46 µM |
| CCCCC(C)(O)C/C=C/[C@H]1[C@H](O)CC(=O)[C@@H]1CCCCCCC(=O)OC (stereo partly specified) | > 46 µM |
| CN(C)CCOC(c1ccccc1)c1ccccc1 | > 46 µM |
| Cc1ccc(S(=O)(=O)NC(=O)NC2CCCC2)cc1 | > 46 µM |
| COc1ccc2c3c1O[C@H]1C[C@@H](O)C=C[C@@]31CCN(C)C2 | > 46 µM |
| O=c1cc[nH]c(=O)[nH]1 | > 46 µM |
| CN(C)C(=O)Nc1ccc(Cl)c(Cl)c1 | > 46 µM |
| n\24c1c(CCN3[C@H]1[C@](/C=C/2C(=O)OCC)(CCC3)CC)c5c4cccc5 | > 46 µM |
